Test [1] deals with T1, recombinant DCAF1-WT (a.a.'s 1046-1396) (Homo sapiens, UniProt Q9Y4B6).
T1 construct: form of DCAF1 containing the WD40 domain (amino acids (a.a.'s) 1046-1396); made in house
Kind of test: gel-ABPP with recombinant purified DCAF1-WT doped into HEK293T cell proteome. The format is binding. Conditions: for inhibition of MY-11B probe reactivity with recombinant DCAF1: 2 h, then MY-11B 25 μM 1 h, YT41S and YT47S at single concentration 100 μM; for plateau of blockade of MY-11B labeling: at 20 µM test concentrations; for gel-shift of recombinant DCAF1 by Coomassie blue staining: in the presence of compound. The source says:
FIG. 2 that azetidine acrylamides stereo- and site-selectively engage recombinant DCAF1_C1113. (A) Domain map of DCAF1 with the region used for recombinant protein studies marked in a bracket (a.a.'s 1046-1396) and C1113 highlighted in red. (B) Crystal structure of a DCAF1-Vpx complex (pdb: 5AJA). DCAF1 (a.a.'s 1046-1396) is shown in cyan, Vpx is shown in yellow, and C1113, which is located at the DCAF1-Vpx interface is shown in red. (C) Structures of alkyne-modified azetidine acrylamides MY-11A (5) and MY-11B (6). (D) Gel-ABPP showing the concentration-dependent reactivity of MY-11A and MY-11B (1 h) reactivity with recombinant, purified DCAF1-WT or the DCAF1-C1113A mutant (0.06 μg/μL of DCAF1 protein per sample) doped into HEK293T cell proteome (1 μg/μL). MY-11A/B labeling of proteins was visualized by CuAAC conjugation to an azide-rhodamine tag followed by SDS-PAGE and in-gel fluorescence scanning. Results are from a single experiment representative of two independent experiments. (E) Gel-ABPP showing the concentration-dependent effects of MY-1A and MY-1B on MY-11B reactivity with DCAF1-WT. Samples were treated with MY-1A/B for 2 h, followed by MY-11B (25 μM, 1 h) and analyzed as described in (D). Left, quantification of data presented as mean values±SEM from two independent experiments. Right, representative gel-ABPP results. (D, E) Lower images are Coomassie blue-stained gels corresponding to ABPP gels shown in upper images.
(A) Structures of candidate electrophilic PROTACs YT41R (7), YT41S (8), YT47R (9), and YT47S (10). (B) Gel-ABPP showing the concentration-dependent effects of YT41R and YT47R on MY-11B reactivity with DCAF1-WT protein (0.06 μg/μL of DCAF1 protein per sample) doped into HEK293T cell proteome (1 μg/μL). Also shown are the effects of YT41S and YT47S tested at a single concentration (100 μM). Samples were treated with heterobifunctional compounds for 2 h, followed by MY-11B (25 μM, 1 h) and analyzed as described in FIG. 2D. Left, representative gel-ABPP results. Lower image is Coomassie blue-stained gel corresponding to ABPP gel shown in upper image. Right, quantification of data presented as mean values±SEM from two independent experiments.
DCAF1 is a multi-domain substrate receptor for CRL4 ligases (FIG. 2A) that has diverse physiological and disease functions, including being co-opted by the HIV-2 virus to promote degradation of the antiviral host protein SAMHD1^27-28. […] We verified the stereo- and site-selective engagement of DCAF1_C1113 by azetidine acrylamides using alkynylated analogues of MY-1A and MY-1B (MY-11A (5) and MY-11B (6), respectively; FIG. 2C). For these experiments, we doped into HEK293T cell lysates a recombinantly expressed and purified form of DCAF1 containing the WD40 domain (amino acids (a.a.'s) 1046-1396), in complex with the CRL4 adaptor protein DDB1^31, and exposed these samples to varying concentrations of MY-11A or MY-11B. After 1 h, we assessed MY-11A and MY-11B engagement of DCAF1 by copper-catalyzed azide-alkyne cycloaddition (CuAAC)^32 with an azide-rhodamine reporter tag followed by SDS-PAGE and in-gel fluorescence scanning^33. […] We used gel-ABPP to quantify an in vitro target engagement value (TE50) of approximately 25 μM (95% C.I.=13-38 μM) for MY-1B labeling of DCAF1 (FIG. 2E, left).

In test [2] the target is T2, C1113 of recombinantly expressed DCAF1 (Homo sapiens, UniProt Q9Y4B6).
T2 construct: expressed in transfected cells; host or cells: HEK293T
T2 sequence (Q9Y4B6 whole entry): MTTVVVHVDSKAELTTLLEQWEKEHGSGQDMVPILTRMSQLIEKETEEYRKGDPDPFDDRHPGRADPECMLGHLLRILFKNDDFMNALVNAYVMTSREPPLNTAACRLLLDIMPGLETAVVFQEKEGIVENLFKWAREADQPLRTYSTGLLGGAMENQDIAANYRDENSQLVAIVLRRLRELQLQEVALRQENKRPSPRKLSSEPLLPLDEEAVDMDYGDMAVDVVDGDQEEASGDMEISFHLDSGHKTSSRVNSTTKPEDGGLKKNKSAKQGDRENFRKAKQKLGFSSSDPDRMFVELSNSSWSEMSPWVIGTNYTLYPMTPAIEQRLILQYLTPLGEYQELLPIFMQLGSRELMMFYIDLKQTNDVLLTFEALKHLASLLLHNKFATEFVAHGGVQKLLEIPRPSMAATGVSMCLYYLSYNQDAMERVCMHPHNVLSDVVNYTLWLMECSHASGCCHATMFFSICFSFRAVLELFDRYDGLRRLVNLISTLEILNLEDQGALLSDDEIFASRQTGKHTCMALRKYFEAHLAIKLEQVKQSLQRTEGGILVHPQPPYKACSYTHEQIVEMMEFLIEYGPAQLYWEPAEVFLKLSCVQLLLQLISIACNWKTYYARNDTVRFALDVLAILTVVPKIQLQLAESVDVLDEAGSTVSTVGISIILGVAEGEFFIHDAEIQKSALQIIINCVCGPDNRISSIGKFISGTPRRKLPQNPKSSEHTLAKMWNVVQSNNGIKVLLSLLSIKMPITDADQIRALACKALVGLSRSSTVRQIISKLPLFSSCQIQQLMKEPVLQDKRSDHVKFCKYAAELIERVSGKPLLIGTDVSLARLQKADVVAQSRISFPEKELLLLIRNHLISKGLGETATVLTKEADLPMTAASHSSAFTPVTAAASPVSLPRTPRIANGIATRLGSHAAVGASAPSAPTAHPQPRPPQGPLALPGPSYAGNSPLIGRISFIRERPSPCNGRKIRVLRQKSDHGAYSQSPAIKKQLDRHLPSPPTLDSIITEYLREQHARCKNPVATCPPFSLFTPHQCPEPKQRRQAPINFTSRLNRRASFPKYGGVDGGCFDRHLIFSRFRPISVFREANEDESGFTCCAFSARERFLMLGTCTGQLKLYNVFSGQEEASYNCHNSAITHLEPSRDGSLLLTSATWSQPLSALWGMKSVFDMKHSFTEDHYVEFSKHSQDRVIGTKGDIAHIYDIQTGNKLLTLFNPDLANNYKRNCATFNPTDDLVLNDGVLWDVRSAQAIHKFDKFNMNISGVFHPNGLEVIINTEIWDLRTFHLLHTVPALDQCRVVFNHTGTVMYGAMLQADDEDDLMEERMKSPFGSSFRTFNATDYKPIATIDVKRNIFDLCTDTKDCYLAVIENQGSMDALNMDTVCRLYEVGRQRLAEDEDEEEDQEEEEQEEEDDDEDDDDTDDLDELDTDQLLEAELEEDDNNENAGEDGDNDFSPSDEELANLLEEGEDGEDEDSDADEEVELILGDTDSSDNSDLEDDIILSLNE
Put plainly: MS-ABPP in FLAG-DCAF1-WT-expressing HEK293T cells. The format is cell-based. As to conditions: 5 μM, 3 h. The method, then: (§1) (A) Left, western blots showing effects of YT47R and YT47S on the immunoprecipitation (IP) of FLAG-DCAF1-WT or FLAG-DCAF1-C1113A with HA-FKBP12 in HEK293T cells co-expressing these proteins. Cells were treated with YT47R or YT47S (5 μM) for 2 h in the presence of MG132 (10 μM) prior to lysis and IP with an anti-HA antibody and western blotting for the indicated proteins (DCAF1, FKBP12, and ubiquitinated protein). Right, bar graphs quantifying DCAF1 (top) and ubiquitination (Ub) (bottom) in the indicated IP groups. (B) Left, western blots showing effects of YT47R and YT47S on the IP of endogenous DCAF1 with HA-FKBP12 in HEK293T cells expressing HA-FKBP12. […] Right, bar graph quantifying DCAF1 in the indicated IP groups. […] Statistical significance was calculated with unpaired two-tailed Student's t-tests comparing YT41R/YT47R- and DMSO-treated cells. **P<0.01, ****P<0.0001. (C) MS-ABPP quantification of IA-DTB labeling of the indicated cysteines in DCAF1 from FLAG-DCAF1-WT-expressing HEK293T cells treated with the indicated concentrations of YT47R (3 h) relative to cells treated with DMSO. […] Statistical significance was calculated with unpaired two-tailed Student's t-tests comparing compound to DMSO treated cells. *P<0.1. […]

In a further test the target is T3, HA-FKBP12 (Homo sapiens, UniProt P62942).
T3 construct: expressed in transfected cells; host or cells: HEK293T
T3 sequence (P62942 whole entry): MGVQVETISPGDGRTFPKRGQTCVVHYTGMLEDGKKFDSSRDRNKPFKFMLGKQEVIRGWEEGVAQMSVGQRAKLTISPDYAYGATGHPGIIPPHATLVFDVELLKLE
Put plainly: ubiquitination of immunoprecipitated HA-FKBP12 in HEK293T cells. The format is cell-based. As for the experimental part: as §1

T1 sequence (Q9Y4B6 1046-1396): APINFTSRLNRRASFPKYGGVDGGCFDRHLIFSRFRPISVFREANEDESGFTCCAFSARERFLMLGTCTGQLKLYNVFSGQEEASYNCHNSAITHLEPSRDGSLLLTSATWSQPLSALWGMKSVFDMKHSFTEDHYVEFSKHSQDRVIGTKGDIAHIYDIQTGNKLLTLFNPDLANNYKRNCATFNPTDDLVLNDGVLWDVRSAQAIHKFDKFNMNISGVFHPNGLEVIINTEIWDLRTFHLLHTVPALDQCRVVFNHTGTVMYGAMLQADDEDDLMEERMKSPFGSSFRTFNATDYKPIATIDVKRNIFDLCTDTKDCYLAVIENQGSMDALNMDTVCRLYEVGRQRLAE
T1 sequence (Q16531 whole entry partner, the tested form may be a part): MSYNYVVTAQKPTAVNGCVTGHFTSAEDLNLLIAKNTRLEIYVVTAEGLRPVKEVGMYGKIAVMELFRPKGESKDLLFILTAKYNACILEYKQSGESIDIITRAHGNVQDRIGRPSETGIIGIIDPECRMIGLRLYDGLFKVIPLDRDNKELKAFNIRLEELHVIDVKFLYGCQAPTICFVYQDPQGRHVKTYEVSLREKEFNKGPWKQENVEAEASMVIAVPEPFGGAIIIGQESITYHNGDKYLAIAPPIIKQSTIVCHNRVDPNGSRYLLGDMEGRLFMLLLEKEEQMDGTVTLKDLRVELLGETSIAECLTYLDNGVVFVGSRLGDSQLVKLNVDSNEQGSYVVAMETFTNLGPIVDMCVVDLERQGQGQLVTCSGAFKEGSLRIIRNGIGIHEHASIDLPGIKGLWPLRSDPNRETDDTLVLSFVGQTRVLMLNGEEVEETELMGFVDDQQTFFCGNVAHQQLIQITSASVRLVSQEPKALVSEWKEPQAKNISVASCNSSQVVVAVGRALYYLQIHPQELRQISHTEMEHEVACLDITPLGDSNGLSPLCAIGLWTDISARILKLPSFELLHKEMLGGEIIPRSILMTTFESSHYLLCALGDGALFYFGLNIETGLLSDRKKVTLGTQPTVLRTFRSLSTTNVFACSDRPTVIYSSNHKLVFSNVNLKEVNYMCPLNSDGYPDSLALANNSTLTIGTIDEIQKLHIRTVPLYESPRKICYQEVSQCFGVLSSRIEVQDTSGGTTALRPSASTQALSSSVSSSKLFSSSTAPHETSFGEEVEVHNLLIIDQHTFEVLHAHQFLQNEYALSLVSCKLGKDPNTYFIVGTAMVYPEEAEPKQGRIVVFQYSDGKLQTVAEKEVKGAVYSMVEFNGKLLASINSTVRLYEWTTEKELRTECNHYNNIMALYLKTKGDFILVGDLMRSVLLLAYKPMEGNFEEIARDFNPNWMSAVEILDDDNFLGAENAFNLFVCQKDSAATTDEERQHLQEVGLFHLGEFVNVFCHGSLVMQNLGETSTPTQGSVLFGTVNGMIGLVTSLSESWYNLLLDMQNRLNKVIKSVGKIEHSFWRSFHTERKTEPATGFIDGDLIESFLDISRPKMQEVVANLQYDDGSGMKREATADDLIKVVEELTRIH

As for `C=CC(=O)C1C[C@H](c2ccc(C(=O)NCCOCCOCCNC(=O)COc3cccc([C@@H](CCc4ccc(OC)c(OC)c4)OC(=O)[C@@H]4CCCCN4C(=O)C(=O)C(C)(C)CC)c3)cc2)[C@@H]1C(=O)Nc1cccc2cccnc12` (stereo partly drawn) [YT41R], in test [1], the “inhibition of MY-11B probe reactivity with recombinant DCAF1” value was “concentration-dependent inhibition”, the “plateau of blockade of MY-11B labeling” value is around 75% and the “gel-shift of recombinant DCAF1 by Coomassie blue staining” value is “apparent gel-shift”.
As for `C=CC(=O)N1C[C@H](c2ccc(C(=O)NCCOCCOCCOCCNC(=O)COc3cccc([C@@H](CCc4ccc(OC)c(OC)c4)OC(=O)[C@@H]4CCCCN4C(=O)C(=O)C(C)(C)CC)c3)cc2)[C@@H]1C(=O)Nc1cccc2cccnc12` [YT47R], in test [1], the “inhibition of MY-11B probe reactivity with recombinant DCAF1” value is on record as “concentration-dependent inhibition”, the “plateau of blockade of MY-11B labeling” value is recorded as around 75% and the “gel-shift of recombinant DCAF1 by Coomassie blue staining” value is reported as “apparent gel-shift”. Besides, in test [2], the “engagement of C1113 of recombinantly expressed DCAF1” value is around 20%. For the same molecule, at HA-FKBP12 (DCAF1-WT-expressing cells, 5 μM, 2 h, MG132), the “polyubiquitination of immunoprecipitated HA-FKBP12” value is on record as “robust polyubiquitination”. For the same molecule, on HA-FKBP12 (HEK293T cells that did not express exogenous DCAF1, versus YT47S), the FKBP12 ubiquitination result is “increased FKBP12 ubiquitination”.

The record behind these values is US20260083722A1, “BIFUNCTIONAL DEGRADERS COMPRISING ELECTROPHILIC PROTACS THAT ENGAGE DCAF1 AND PHARMACEUTICAL COMPOSITIONS COMPRISING THE SAME” (THE SCRIPPS RESEARCH INSTITUTE, priority 2022, published 2026).
